Experimental data from ChEMBL document CHEMBL1201862, “PubChem BioAssay data set” (2004).
Calls of active or inactive are those of the source.

Experiments:
NADPH oxidase 1 = NADPH oxidase 1 (Homo sapiens, UniProt Q9Y5S8); assay type: functional, cell-based;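 further: Cell-based assay with luminescence read-out, IC50 derived from inhibitor dose-response curves; intracellular ROS from endogenous NOX1 in intact HT29 colon cancer cells; potency of inhibitors that lower the ROS luminescence signal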
Estrogen receptor = target: T1, Estrogen receptor (Homo sapiens, UniProt P03372); assay: potentiators of ERα–SRC-1 coactivator binding, dose response, biochemical, TR-FRET, ERα LBD (AID 737)
T1 sequence (P03372 whole entry): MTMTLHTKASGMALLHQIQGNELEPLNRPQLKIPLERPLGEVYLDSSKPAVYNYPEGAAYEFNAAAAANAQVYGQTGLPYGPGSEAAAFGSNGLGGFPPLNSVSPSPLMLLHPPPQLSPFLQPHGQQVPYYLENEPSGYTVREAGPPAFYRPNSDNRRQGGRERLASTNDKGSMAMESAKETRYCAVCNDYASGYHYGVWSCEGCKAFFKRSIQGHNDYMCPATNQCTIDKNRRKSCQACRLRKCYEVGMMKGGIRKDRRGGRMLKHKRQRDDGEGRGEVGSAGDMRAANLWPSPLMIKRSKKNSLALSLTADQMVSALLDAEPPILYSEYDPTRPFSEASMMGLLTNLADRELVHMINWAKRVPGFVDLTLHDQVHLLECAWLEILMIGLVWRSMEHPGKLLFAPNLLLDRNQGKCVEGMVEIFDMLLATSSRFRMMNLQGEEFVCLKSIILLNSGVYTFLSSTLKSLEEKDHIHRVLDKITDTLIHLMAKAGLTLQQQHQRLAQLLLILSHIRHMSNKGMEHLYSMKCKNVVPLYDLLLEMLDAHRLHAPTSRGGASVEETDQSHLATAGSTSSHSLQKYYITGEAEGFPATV

[1] = enhancers of respiration in Yfh1-depleted yeast, dose response, Friedreich's ataxia, plus single-dose screen (AID 1465); assay type: functional;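 further: yeast depleted of Yfh1p frataxin homolog grown on glycerol needing respiration; WST-1 tetrazolium dye reduction as measure of cellular dehydrogenase metabolic activity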
Nonstructural protein 1 = Nonstructural protein 1 (Influenza A virus, UniProt Q194T2); assay type: functional, Influenza A virus (A/California/07/2009(H1N1))
Nonstructural protein 1, sequence (Q194T2 whole entry): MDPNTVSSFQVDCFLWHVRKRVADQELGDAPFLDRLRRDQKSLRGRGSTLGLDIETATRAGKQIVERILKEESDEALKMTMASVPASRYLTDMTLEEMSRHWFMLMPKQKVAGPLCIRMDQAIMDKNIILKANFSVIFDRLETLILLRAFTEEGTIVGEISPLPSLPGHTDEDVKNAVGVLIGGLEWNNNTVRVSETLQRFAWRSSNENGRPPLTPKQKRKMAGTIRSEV

cells [2] = assay type: functional, cell-based
cells [3] = assay type: functional, cell-based; remark: listed apart in the source
HEK293 [4] = assay: NOD1 signaling inhibitors, primary screen, cell-based, luminescence, uHTS (AID 1578); assay type: functional; conditions: Homo sapiens
HEK293 [5] = assay: NOD2 signaling inhibitors in MDP-stimulated cells, cell-based, uHTS, luminescence (AID 2001); assay type: functional; conditions: Homo sapiens
HEK293 [6] = assay: cells; assay type: functional, cell-based; conditions: Homo sapiens
HEK293 [7] = assay: cells; assay type: functional, cell-based; conditions: Homo sapiens; remark: listed apart in the source
Bcl-2-like protein 10 = target: T2, Bcl-2-like protein 10 (Homo sapiens, UniProt Q9HD36); assay: Biochemical TR3 FP assay of Bcl-B inhibitor potency, EC50 (AID 1243); assay type: functional
T2 sequence (Q9HD36 whole entry): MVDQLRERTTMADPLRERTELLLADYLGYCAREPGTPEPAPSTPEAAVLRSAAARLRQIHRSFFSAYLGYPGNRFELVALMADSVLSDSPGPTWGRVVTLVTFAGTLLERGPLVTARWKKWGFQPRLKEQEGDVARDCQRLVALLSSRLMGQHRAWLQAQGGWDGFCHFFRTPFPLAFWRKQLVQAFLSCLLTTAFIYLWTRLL

Melanocortin receptor 4 = Melanocortin receptor 4 (Homo sapiens, UniProt P32245); assay: MC4R antagonist potency on cAMP, dose response, cell-based, TR-FRET, biased antagonists (AID 602298); assay type: functional;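 further: antagonist potency against agonist-stimulated cAMP production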
Melanocortin receptor 4, sequence (P32245 whole entry): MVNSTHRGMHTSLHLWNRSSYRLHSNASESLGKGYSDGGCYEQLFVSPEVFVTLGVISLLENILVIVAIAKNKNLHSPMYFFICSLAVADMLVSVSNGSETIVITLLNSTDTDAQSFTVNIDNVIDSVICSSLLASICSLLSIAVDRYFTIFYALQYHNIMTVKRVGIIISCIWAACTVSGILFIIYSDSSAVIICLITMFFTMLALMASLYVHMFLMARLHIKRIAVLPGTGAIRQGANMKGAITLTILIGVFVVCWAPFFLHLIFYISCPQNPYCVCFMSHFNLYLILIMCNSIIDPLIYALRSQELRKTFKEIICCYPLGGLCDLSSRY

[8] = target: T3, Neuropeptide Y receptor type 1 (Homo sapiens, UniProt P25929); assay type: functional;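 further: HEK293 cells with a CNG channel challenged with NPY then isoproterenol; potency as antagonist that reverses NPY suppression of cAMP signal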
T3 sequence (P25929 whole entry): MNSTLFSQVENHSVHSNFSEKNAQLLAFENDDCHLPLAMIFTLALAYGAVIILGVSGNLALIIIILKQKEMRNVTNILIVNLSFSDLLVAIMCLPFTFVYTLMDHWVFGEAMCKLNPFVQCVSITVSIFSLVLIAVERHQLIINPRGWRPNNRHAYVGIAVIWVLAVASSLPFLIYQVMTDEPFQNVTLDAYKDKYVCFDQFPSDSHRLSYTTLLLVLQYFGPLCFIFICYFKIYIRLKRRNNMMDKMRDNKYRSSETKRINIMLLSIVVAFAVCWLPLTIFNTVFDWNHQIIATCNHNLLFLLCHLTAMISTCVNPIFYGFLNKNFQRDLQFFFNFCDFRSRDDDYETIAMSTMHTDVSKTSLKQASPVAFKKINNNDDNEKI

[9] = target: T4, Neuropeptide Y receptor type 2 (Homo sapiens, UniProt P49146); assay type: functional, cell-based;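 further: HEK293 cells expressing the receptor and a CNG channel; stimulus was NPY near EC95 followed by isoproterenol to raise cAMP; antagonist potency measured as restoring cAMP signal that NPY suppresses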
T4 sequence (P49146 whole entry): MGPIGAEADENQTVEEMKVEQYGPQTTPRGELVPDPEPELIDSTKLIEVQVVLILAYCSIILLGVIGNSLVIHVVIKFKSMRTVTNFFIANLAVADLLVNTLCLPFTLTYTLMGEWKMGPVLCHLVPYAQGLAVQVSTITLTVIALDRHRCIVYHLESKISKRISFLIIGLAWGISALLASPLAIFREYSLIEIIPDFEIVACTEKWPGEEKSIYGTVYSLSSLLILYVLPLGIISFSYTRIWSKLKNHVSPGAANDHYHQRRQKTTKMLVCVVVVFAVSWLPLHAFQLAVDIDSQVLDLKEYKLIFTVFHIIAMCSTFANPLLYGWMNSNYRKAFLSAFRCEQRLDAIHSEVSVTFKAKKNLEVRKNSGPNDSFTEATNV

[10] = nonselective inhibitors of cellular cAMP signaling, dose response, counter-screen for MC4R biased antagonist project, cell-based, TR-FRET cAMP detection (AID 602305); assay type: functional;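 further: U2OS cells stimulated with forskolin near its EC80 as the cAMP inducer; potency is for inhibition of forskolin-stimulated cAMP signaling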
[11] = target: T5, Endoribonuclease toxin MazF (Escherichia coli K-12, UniProt P0AE70); assay: MazF toxin RNase activators, dose response, biochemical, fluorescence, single-stranded RNA substrate, uHTS hits (AID 588481); assay type: functional
T5 sequence (P0AE70 whole entry): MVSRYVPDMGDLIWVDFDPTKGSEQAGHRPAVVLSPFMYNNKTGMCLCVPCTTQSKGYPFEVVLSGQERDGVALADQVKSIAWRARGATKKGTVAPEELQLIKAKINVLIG

Bcl-2-like protein 1 = Bcl-2-like protein 1 (Homo sapiens, UniProt Q07817); assay: BCL-XL inhibitors, dose response, selectivity assay for MCL1 inhibitor project, biochemical, fluorescence polarization, 1536-well (AID 2218)
Bcl-2-like protein 1, sequence (Q07817 whole entry): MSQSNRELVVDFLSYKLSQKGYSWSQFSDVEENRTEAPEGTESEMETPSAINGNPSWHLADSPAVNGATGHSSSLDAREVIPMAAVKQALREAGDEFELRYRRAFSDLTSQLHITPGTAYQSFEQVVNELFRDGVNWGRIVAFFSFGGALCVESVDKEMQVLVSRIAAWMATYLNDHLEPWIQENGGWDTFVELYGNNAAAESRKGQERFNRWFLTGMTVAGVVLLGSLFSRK

[12] = target: T5, Endoribonuclease toxin MazF; assay: fluorescent RNA oligo signal without MazF, dose response, counter-screen for MazEF activator project, biochemical, fluorescence, single-stranded RNase substrate (AID 588502); assay type: functional
[13] = target: Induced myeloid leukemia cell differentiation protein Mcl-1 (Homo sapiens, UniProt Q07820); assay: MCL1-BIM BH3 interaction inhibitors, dose response, biochemical, fluorescence polarization, BIM-BH3 peptide, 1536-well (AID 2217)
Induced myeloid leukemia cell differentiation protein Mcl-1, sequence (Q07820 whole entry): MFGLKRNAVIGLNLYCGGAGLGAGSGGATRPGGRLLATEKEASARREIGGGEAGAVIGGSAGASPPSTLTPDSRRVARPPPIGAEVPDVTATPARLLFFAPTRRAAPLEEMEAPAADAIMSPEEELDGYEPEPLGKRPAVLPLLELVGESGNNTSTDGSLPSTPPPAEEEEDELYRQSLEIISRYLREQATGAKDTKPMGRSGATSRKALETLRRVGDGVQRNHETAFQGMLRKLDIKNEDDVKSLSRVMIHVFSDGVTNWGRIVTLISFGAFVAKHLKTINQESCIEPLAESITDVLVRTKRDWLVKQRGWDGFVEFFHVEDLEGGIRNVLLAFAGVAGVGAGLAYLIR

Escherichia coli = assay: microbe, parasite or virus in culture
[14] = A High Throughput Confirmatory Assay used to Identify Novel Compounds that Inhibit Mycobacterium Tuberculosis in the absence of Glycerol.; assay type: functional
[15] = growth suppression of PTEN-null colon cells, dose response, cell-based, HCT116 PTEN knockout (AID 1047); assay type: functional;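 further: HCT116 colon tumor cells with PTEN knocked out; cells exposed to compound for 60 hours before readout; potency for loss of cell viability measured by luminescence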
Mucolipin-3 = Mucolipin-3 (Homo sapiens, UniProt Q8TDD5); assay: Dose response cell-based high-throughput screening assay for agonists of the transient receptor potential channel ML3 (TRPML3). [Related pubchem assays: 1526, 1424, 1448 ]; assay type: functional
Mucolipin-3, sequence (Q8TDD5 whole entry): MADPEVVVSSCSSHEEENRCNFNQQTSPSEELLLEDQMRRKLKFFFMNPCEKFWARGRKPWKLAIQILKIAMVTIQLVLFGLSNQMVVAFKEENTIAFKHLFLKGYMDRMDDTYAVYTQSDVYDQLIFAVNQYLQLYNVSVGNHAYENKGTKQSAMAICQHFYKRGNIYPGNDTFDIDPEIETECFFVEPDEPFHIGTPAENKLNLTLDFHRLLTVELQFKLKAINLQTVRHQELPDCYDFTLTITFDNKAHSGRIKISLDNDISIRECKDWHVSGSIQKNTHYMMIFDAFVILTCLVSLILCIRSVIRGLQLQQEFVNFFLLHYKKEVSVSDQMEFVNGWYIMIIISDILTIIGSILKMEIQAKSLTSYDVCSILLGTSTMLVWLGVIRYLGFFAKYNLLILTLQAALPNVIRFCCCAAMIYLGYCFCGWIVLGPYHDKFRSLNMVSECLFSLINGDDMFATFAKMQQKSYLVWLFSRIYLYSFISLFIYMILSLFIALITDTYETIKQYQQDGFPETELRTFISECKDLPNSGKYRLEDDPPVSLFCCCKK

[16] = growth suppression of beta-catenin-knockout colon cells, dose response, cell-based, HCT116, human colon tumor (AID 1045); assay type: functional;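 further: HCT116 colon tumor cells with beta catenin knocked out; cells exposed to compound for 60 hours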
Ion channel NompC = Ion channel NompC (Danio rerio, UniProt Q7T1G6); assay: Fluorescence counterscreen assay for TRPML3 agonists: dose response cell-based high-throughput screening assay to identify agonists of the transient receptor potential channel N1 (TRPN1). [Related pubchem assays: 1526, 1424, 1448 ]; assay type: functional
Ion channel NompC, sequence (Q7T1G6 whole entry): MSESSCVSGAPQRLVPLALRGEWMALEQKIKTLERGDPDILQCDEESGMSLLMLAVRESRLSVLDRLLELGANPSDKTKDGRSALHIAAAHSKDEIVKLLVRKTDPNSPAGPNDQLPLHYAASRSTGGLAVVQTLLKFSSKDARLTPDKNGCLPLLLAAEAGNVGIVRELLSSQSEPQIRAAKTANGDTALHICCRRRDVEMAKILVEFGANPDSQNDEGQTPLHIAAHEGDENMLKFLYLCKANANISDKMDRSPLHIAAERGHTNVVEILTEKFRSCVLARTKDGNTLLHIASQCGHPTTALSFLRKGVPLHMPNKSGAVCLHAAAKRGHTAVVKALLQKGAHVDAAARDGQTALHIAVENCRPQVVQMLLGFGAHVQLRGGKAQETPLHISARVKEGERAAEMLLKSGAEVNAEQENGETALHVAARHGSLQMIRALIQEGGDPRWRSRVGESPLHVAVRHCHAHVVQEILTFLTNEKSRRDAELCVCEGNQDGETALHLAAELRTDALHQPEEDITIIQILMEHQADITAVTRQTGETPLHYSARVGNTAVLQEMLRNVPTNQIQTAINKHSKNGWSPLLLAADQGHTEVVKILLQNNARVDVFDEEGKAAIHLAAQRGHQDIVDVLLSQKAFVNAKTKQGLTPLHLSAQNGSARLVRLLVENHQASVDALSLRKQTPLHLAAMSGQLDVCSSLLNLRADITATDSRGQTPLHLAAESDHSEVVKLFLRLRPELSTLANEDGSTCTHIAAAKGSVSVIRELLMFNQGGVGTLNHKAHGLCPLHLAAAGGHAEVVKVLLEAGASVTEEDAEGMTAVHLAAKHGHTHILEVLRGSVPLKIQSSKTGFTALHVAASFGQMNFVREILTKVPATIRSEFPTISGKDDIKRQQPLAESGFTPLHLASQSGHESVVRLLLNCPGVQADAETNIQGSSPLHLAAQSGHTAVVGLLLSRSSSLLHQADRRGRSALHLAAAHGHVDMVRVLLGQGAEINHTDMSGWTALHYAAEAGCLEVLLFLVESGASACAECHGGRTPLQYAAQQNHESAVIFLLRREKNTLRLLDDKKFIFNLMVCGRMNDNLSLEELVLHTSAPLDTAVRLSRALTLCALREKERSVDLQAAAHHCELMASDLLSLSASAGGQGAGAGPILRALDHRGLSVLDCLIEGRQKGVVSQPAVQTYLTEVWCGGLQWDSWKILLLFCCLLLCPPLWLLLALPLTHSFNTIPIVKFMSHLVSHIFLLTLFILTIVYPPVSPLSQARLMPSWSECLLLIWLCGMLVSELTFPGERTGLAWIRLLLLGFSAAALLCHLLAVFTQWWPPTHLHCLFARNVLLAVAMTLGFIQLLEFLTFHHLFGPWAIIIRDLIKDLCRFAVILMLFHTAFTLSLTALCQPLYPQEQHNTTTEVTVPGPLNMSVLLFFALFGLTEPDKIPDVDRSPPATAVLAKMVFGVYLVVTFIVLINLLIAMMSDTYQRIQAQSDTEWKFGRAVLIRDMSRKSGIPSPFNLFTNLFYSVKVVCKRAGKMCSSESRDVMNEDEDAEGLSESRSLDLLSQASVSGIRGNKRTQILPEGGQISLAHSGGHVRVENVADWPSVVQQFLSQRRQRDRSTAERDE

[17] = target: T6, Mannose-6-phosphate isomerase (Homo sapiens, UniProt P34949); assay: inhibitors of human PMI, primary screen, biochemical, fluorescence intensity, coupled assay (AID 1209)
T6 sequence (P34949 whole entry): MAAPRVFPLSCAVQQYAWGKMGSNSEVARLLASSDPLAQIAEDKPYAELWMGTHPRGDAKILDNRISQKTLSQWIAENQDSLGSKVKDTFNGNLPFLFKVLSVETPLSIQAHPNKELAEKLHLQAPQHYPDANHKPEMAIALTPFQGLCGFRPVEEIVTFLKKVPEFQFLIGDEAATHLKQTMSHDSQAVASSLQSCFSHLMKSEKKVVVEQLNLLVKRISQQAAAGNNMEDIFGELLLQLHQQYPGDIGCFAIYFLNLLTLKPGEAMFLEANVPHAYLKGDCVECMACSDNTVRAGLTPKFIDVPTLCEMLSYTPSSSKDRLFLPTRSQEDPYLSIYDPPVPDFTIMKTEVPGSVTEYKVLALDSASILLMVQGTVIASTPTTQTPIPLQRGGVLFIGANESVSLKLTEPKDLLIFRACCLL

[18] = target: T6, Mannose-6-phosphate isomerase; assay: human PMI inhibitors, high substrate, primary screen, biochemical, fluorescence intensity, high mannose 6-phosphate (AID 1220)
[19] = target: T7, Histone-lysine N-methyltransferase NSD2 (Homo sapiens, UniProt O96028); assay type: biochemical
T7 sequence (O96028 whole entry): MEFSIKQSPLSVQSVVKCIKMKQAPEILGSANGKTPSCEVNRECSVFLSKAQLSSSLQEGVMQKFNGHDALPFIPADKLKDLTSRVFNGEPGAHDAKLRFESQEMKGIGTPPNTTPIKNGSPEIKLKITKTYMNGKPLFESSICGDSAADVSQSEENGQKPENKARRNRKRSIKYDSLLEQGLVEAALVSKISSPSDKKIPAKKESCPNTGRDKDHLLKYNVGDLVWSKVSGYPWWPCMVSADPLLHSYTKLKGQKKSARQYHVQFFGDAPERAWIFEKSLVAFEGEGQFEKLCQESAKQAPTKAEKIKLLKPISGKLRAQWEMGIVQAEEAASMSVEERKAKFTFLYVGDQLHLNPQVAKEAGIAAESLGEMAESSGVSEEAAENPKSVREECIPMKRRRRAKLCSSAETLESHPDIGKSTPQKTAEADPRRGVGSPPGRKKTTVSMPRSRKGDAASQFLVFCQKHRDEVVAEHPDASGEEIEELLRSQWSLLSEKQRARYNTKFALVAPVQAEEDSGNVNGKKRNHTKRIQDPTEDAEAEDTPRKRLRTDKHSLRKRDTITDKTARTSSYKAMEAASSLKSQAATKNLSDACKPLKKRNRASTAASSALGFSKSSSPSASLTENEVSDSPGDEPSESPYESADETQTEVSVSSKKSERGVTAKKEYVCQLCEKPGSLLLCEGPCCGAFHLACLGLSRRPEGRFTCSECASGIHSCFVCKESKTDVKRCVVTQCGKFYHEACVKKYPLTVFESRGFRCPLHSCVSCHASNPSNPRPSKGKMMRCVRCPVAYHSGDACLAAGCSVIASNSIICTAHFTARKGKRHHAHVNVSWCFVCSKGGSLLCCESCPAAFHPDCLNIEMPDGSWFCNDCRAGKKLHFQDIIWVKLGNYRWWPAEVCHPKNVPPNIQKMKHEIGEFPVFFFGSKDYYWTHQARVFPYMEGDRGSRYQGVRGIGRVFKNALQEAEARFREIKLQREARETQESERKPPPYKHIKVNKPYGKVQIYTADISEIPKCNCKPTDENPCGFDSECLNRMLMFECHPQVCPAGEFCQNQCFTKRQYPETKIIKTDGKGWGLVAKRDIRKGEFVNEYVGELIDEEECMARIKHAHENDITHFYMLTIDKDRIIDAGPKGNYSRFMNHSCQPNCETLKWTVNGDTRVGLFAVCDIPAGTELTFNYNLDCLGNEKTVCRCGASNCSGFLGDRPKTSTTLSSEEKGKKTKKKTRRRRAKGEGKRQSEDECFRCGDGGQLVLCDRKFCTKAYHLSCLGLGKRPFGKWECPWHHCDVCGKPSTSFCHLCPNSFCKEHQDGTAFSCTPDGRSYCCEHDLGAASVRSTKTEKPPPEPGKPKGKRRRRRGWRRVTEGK

NADPH oxidase 1, sequence (Q9Y5S8 whole entry, the tested form may be a part): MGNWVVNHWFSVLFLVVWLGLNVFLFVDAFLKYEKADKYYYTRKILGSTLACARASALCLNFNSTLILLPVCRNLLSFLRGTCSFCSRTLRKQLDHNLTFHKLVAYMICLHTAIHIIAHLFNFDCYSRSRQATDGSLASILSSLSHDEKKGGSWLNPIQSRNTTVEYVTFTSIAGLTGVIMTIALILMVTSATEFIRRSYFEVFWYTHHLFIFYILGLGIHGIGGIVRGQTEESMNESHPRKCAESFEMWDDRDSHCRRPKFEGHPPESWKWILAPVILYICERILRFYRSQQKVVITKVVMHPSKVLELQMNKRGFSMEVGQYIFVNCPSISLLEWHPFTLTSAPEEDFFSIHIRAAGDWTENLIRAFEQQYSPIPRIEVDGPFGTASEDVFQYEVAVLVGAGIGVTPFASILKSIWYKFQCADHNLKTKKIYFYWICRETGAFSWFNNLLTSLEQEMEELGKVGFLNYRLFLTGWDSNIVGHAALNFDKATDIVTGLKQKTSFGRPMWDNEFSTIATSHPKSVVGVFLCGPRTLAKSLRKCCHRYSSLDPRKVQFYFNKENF

Ic1ccc(-c2nc(-c3ccccc3)c(-c3ccccc3)[nH]2)cc1
IC50 (NADPH oxidase 1): > 17 µM (not active)

CSc1nnc2c(n1)OC(c1ccsc1)N(C(C)=O)c1ccccc1-2 (stereo not drawn)
EC50 (Estrogen receptor): 22.6 µM (not active)

COc1ccc(O)c(/C=N/NC(=S)Nc2cccc(S(=O)(=O)N(C)C)c2)c1
EC50 [1]: > 100 µM (active)
IC50 (Nonstructural protein 1): 8.98 µM (active)
EC50 (cells [2]): 10.8 µM (active)
EC50 (cells [3]): > 350 µM (not active)

Nc1[nH]nc2ncc3cc4ccccc4nc3c12
EC50 (HEK293 [4]): 11.9 µM (active)
IC50 (HEK293 [5]): 8.23 µM (active)
IC50 (HEK293 [6]): > 20 µM (inactive)
IC50 (HEK293 [7]): 7.35 µM (active)
EC50 (Bcl-2-like protein 10): 3.74 µM (active)

COC(=O)C1=C(C(=O)OC)SC2(S1)C(C(=O)OC)=C(C(=O)OC)SC1=C2c2cccc(C)c2NC1(C)C
IC50 (Melanocortin receptor 4): 3.83 µM (active)
IC50 [8]: > 35 µM (not active)
IC50 [9]: > 35 µM (not active)
IC50 [10]: > 64.6 µM (inactive)

O=C(Oc1ccc2c(c1)O/C(=C\c1ccncc1)C2=O)c1ccccc1
EC50 [11]: > 99 µM (inactive)
IC50 (Bcl-2-like protein 1): 15.5 µM (not active)
EC50 [12]: 48 µM (inactive)
IC50 [13]: 11.7 µM (not active)

O=C1c2ccccc2CC1Sc1nnc(-c2ccncc2)o1 (stereo not drawn)
AC50 (Escherichia coli): 268 µM (active)
IC50 [14]: > 100 µM (active)

CC(c1ccccc1)N(NC(=O)C(O)(c1ccccc1)c1ccccc1)C(=O)c1ccccc1 (stereo not drawn)
EC50 [15]: 13.9 µM (active)
EC50 (Mucolipin-3): > 29.9 µM (not active)
EC50 [16]: 11.3 µM (active)
EC50 (Ion channel NompC): > 29.9 µM (not active)

CN1c2cccc3cccc(c23)N(C)C1(C)C
IC50 [17]: > 50 µM (not active)
IC50 [18]: > 50 µM (not active)
AC50 [19]: 11.4 µM (active)
